From patent publication US20200239530A1, “COMPOUNDS AND METHODS OF MODULATING PROTEIN DEGRADATION” (Vividion Therapeutics, Inc., priority 2017, published 2020)

Biological target: T1, TRIM33 E3 ubiquitin-protein ligase TRIM33 (Homo sapiens, UniProt Q9UPN9)
T1 construct: Cells were resuspended in cold PBS on ice and sonicated with a probe sonicator to achieve lysis; endogenous in cells
T1 sequence (Q9UPN9 1-1127): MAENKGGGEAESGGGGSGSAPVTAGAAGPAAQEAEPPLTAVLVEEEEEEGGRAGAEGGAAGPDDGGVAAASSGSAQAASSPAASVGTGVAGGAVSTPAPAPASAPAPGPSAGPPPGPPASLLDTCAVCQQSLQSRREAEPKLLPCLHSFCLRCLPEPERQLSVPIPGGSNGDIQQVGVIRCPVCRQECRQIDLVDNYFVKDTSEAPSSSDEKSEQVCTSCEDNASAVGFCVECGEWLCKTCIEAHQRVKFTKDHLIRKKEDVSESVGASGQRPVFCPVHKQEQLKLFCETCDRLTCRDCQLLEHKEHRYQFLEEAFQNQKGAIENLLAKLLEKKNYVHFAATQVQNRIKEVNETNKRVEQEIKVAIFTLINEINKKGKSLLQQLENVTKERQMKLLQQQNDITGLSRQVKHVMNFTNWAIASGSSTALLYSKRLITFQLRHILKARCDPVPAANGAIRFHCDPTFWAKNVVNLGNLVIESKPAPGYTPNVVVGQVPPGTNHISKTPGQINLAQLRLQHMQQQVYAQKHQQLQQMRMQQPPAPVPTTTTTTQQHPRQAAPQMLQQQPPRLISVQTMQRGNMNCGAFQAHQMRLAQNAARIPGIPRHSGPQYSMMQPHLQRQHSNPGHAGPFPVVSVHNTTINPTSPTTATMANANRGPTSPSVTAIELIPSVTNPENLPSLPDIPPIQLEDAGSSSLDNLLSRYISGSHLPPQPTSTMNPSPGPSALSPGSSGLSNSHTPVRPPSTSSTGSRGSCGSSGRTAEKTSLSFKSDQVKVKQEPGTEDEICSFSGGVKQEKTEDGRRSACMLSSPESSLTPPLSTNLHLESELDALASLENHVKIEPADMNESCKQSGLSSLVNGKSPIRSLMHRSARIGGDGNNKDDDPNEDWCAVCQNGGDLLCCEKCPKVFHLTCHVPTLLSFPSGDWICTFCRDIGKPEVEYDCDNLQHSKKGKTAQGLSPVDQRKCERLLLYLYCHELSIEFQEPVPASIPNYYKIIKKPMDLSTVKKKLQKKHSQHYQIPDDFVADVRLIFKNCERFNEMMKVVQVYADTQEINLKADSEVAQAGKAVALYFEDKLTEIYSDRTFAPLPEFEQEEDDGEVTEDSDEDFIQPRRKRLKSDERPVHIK
Experiment: Cysteine liganding, probe competition
Assay type: binding
Summary of the method: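 Probe competition in native proteome: 5 mg/ml lysate, compound 1 hr 25° C, then desthiobiotin iodoacetamide (10 mM stock) 1 hr 25° C; acetone ppt, urea/DTT reduction, iodoacetamide alkylation, trypsin, streptavidin pull-down.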

## COc1ccc2c(c1)CCCN2C(=O)CCl [KB02]
TRIM33 Res# 582, uniprot Q9UPN9
  Liganded: YES

## O=C(CCl)Nc1cc(C(F)(F)F)cc(C(F)(F)F)c1 [KBO3]
500 uM, UniProt Q9UPN9
  KB03_500 uM_percent_inhibition: 86%
TRIM33 Res# 153, uniprot Q9UPN9
  Liganded: YES
